Blank lines part the entries; values can stand above or below the compound they belong to.
What was measured:
[1] = test system: Human immunodeficiency virus 1; assay: Antiviral activity against HIV-1 harboring RT Y188L mutant infected in human MT4 cells assessed as protection against virus-induced cytopathic effect measured after 5 days by MTT assay; assay type: functional, organism-based; settings: Human immunodeficiency virus 1, MT4, 120 h
[2] = test system: Human immunodeficiency virus 1; assay: Antiviral activity against HIV-1 harboring RT RES056 mutant infected in human MT4 cells assessed as protection against virus-induced cytopathic effect measured after 5 days by MTT assay; assay type: functional, organism-based; settings: Human immunodeficiency virus 1, MT4, 120 h
[3] = test system: Human immunodeficiency virus 1; assay: Antiviral activity against HIV-1 harboring RT Y181C mutant infected in human MT4 cells assessed as protection against virus-induced cytopathic effect measured after 5 days by MTT assay; assay type: functional, organism-based; settings: Human immunodeficiency virus 1, MT4, 120 h
[4] = biological target: Human immunodeficiency virus type 1 reverse transcriptase (Human immunodeficiency virus 1, UniProt Q72547); assay: Inhibition of HIV-1 reverse transcriptase incubated for 1 hrs in presence of biotin-labeled dNTPs by ELISA assay
[5] = test system: Human immunodeficiency virus 1; assay: Antiviral activity against HIV-1 harboring RT L100I mutant infected in human MT4 cells assessed as protection against virus-induced cytopathic effect measured after 5 days by MTT assay; assay type: functional, organism-based; settings: Human immunodeficiency virus 1, MT4, 120 h
[6] = biological target: Human immunodeficiency virus type 1 reverse transcriptase (Human immunodeficiency virus 1) (UniProt Q72547); assay: Inhibition of HIV-1 reverse transcriptase at 0.267 uM incubated for 1 hrs in presence of biotin-labeled dNTPs by ELISA assay relative to control
[7] = test system: Human immunodeficiency virus 1; assay: Antiviral activity against HIV-1 harboring RT E138K mutant infected in human MT4 cells assessed as protection against virus-induced cytopathic effect measured after 5 days by MTT assay; assay type: functional, organism-based; settings: Human immunodeficiency virus 1, MT4, 120 h
[8] = test system: Human immunodeficiency virus 1; assay: Antiviral activity against wild type HIV-1 IIIB infected in human MT4 cells assessed as protection against virus-induced cytopathic effect measured after 5 days by MTT assay; assay type: functional, organism-based; settings: Human immunodeficiency virus 1, IIIB, MT4, 120 h
[9] = test system: Human immunodeficiency virus 1; assay: Antiviral activity against HIV-1 harboring RT K103N mutant infected in human MT4 cells assessed as protection against virus-induced cytopathic effect measured after 5 days by MTT assay; assay type: functional, organism-based; settings: Human immunodeficiency virus 1, MT4, 120 h
[10] = Cytotoxicity against human MT4 cells assessed as reduction in cell viability measured after 5 days by MTT assay; assay type: toxicity, cell-based; settings: time 5 day
[11] = test system: Human immunodeficiency virus 1; assay: Antiviral activity against HIV-1 harboring RT F227L/V106A double mutant infected in human MT4 cells assessed as protection against virus-induced cytopathic effect measured after 5 days by MTT assay; assay type: functional, organism-based; settings: Human immunodeficiency virus 1, MT4, 120 h

Structure (SMILES): Cc1cc(C#N)cc(C)c1Oc1nc(Nc2ccc(-c3cn(Cc4ccc(S(C)(=O)=O)cc4)nn3)cc2)nc2ccsc12
- EC50 [1]: 124 µM
- EC50 [2]: ≥ 104 µM
- EC50 [3]: 20 µM
- IC50 [4]: 0.41 µM
- EC50 [5]: 2.16 µM
- inhibition [6]: 51.9%
- EC50 [7]: 0.14 µM
- EC50 [8]: 0.04 µM
- EC50 [9]: 0.06 µM
- CC50 at 120 h [10]: > 206 µM
- EC50 [11]: 110 µM

Structure (SMILES): Cc1cc(C#N)cc(C)c1Oc1nc(Nc2ccc(-c3cn(Cc4ccc(Cl)cc4)nn3)cc2)nc2ccsc12
- EC50 [1]: > 222 µM
- EC50 [2]: > 222 µM
- EC50 [3]: 202 µM
- IC50 [4]: 0.32 µM
- EC50 [5]: 73.2 µM
- inhibition [6]: 44.7%
- EC50 [7]: 1.08 µM
- EC50 [8]: 0.55 µM
- EC50 [9]: 1.11 µM
- CC50 at 120 h [10]: > 222 µM
- EC50 [11]: 106 µM

Structure (SMILES): Cc1cc(C#N)cc(C)c1Oc1nc(Nc2ccc(-c3cn(-c4ccc(C(N)=O)cc4)nn3)cc2)nc2ccsc12
- EC50 [1]: > 164 µM
- EC50 [2]: > 164 µM
- EC50 [3]: > 164 µM
- IC50 [4]: 0.8 µM
- EC50 [5]: > 164 µM
- inhibition [6]: 66.9%
- EC50 [7]: 0.92 µM
- EC50 [8]: 0.15 µM
- EC50 [9]: 0.25 µM
- CC50 at 120 h [10]: 164 µM
- EC50 [11]: > 164 µM

- inhibition [6]: 24.8%
Structure (SMILES): Cc1cc(C#N)cc(C)c1Oc1nc(Nc2ccc(-c3cn(Cc4ccccc4[N+](=O)[O-])nn3)cc2)nc2ccsc12

- inhibition [6]: 28.4%
Structure (SMILES): Cc1cc(C#N)cc(C)c1Oc1nc(Nc2ccc(-c3cn(Cc4cccc(Cl)c4)nn3)cc2)nc2ccsc12

- inhibition [6]: 35.7%
Structure (SMILES): COC(=O)Cn1cc(-c2ccc(Nc3nc(Oc4c(C)cc(C#N)cc4C)c4sccc4n3)cc2)nn1

- inhibition [6]: 21%
Structure (SMILES): Cc1cccc(Cn2cc(-c3ccc(Nc4nc(Oc5c(C)cc(C#N)cc5C)c5sccc5n4)cc3)nn2)c1

- inhibition [6]: 36.9%
Structure (SMILES): Cc1cc(C#N)cc(C)c1Oc1nc(Nc2ccc(-c3cn(Cc4ccc(C#N)cc4)nn3)cc2)nc2ccsc12

- inhibition [6]: 21.8%
Structure (SMILES): Cc1cc(C#N)cc(C)c1Oc1nc(Nc2ccc(-c3cn(CC(=O)N4CCOCC4)nn3)cc2)nc2ccsc12

- inhibition [6]: 4.9%
Structure (SMILES): Cc1cc(C)c(-n2cc(-c3ccc(Nc4nc(Oc5c(C)cc(C#N)cc5C)c5sccc5n4)cc3)nn2)c(C)c1

Structure (SMILES): Cc1cc(C#N)cc(C)c1Oc1nc(Nc2ccc(C#N)cc2)nc(N)c1Br [ETRAVIRINE]
- EC50 [2]: 0.07 µM
- EC50 [5]: 0.01 µM
- inhibition [6]: 56.4%
- EC50 [7]: 0.02 µM
- EC50 [9]: 0.004 µM
- CC50 at 120 h [10]: > 461 µM
- EC50 [11]: 0.03 µM

- inhibition [6]: 24.7%
Structure (SMILES): Cc1cc(C#N)cc(C)c1Oc1nc(Nc2ccc(-c3cn(Cc4cccc(C#N)c4)nn3)cc2)nc2ccsc12

- inhibition [6]: 24.8%
Structure (SMILES): Cc1cc(C#N)cc(C)c1Oc1nc(Nc2ccc(-c3cn([C@H]4C[C@@H](n5cc(C)c(=O)[nH]c5=O)O[C@@H]4CO)nn3)cc2)nc2ccsc12

- inhibition [6]: 33.3%
Structure (SMILES): Cc1ccccc1Cn1cc(-c2ccc(Nc3nc(Oc4c(C)cc(C#N)cc4C)c4sccc4n3)cc2)nn1

- inhibition [6]: 31.2%
Structure (SMILES): CCOC(=O)Cn1cc(-c2ccc(Nc3nc(Oc4c(C)cc(C#N)cc4C)c4sccc4n3)cc2)nn1

- inhibition [6]: 27.1%
Structure (SMILES): Cc1cc(C#N)cc(C)c1Oc1nc(Nc2ccc(-c3cn(CCc4ccccc4)nn3)cc2)nc2ccsc12

- inhibition [6]: 34.7%
Structure (SMILES): Cc1cc(C#N)cc(C)c1Oc1nc(Nc2ccc(-c3cn(-c4ccc(CO)cc4)nn3)cc2)nc2ccsc12

- inhibition [6]: 35.9%
Structure (SMILES): Cc1cc(C#N)cc(C)c1Oc1nc(Nc2ccc(-c3cn(Cc4cccc5ccccc45)nn3)cc2)nc2ccsc12

- inhibition [6]: 3.5%
Structure (SMILES): Cc1ccc(Cn2cc(-c3ccc(Nc4nc(Oc5c(C)cc(C#N)cc5C)c5sccc5n4)cc3)nn2)cc1

- inhibition [6]: 29.7%
Structure (SMILES): Cc1cc(C#N)cc(C)c1Oc1nc(Nc2ccc(-c3cn(CC(=O)NC4CC4)nn3)cc2)nc2ccsc12

- inhibition [6]: 38.2%
Structure (SMILES): Cc1cc(C#N)cc(C)c1Oc1nc(Nc2ccc(-c3cn(-c4ccc(C(=O)O)cc4)nn3)cc2)nc2ccsc12

- inhibition [6]: 23.9%
Structure (SMILES): Cc1cc(C#N)cc(C)c1Oc1nc(Nc2ccc(-c3cn(-c4ccc(C(C)(C)C)cc4)nn3)cc2)nc2ccsc12

- inhibition [6]: 3.7%
Structure (SMILES): COc1ccccc1Cn1cc(-c2ccc(Nc3nc(Oc4c(C)cc(C#N)cc4C)c4sccc4n3)cc2)nn1

Structure (SMILES): Cc1cn([C@H]2C[C@H](N=[N+]=[N-])[C@@H](CO)O2)c(=O)[nH]c1=O [ZIDOVUDINE]
- EC50 [1]: 0.03 µM
- EC50 [2]: 0.03 µM
- EC50 [3]: 0.03 µM
- EC50 [7]: 0.04 µM
- EC50 [8]: 0.03 µM
- EC50 [9]: 0.03 µM
- CC50 at 120 h [10]: > 749 µM
- EC50 [11]: 0.02 µM

— ChEMBL document CHEMBL5329212, “In situ click chemistry-based discovery of 1,2,3-triazole-derived diarylpyrimidines as novel HIV-1 NNRTIs by exploiting the tolerant region I in binding pocket” (Bioorg Med Chem, 2023)
